Data from patent US20230019027A1, “SHORT CONJUGATED OLIGOELECTROLYTESAND ANTIBIOTICS” (The Regents Of The University Of California, priority 2019, published 2023).
Blank lines part the entries; values can stand above or below the molecule they belong to.

Tests used:
Type in all cases: cell-based
[1] = tested on: Pseudomonas aeruginosa 01 (PA01); assay: Susceptibility test: individual MIC and check point FIC; set-up: unit not given beside the values; settings: antibiotic alone, 37° C. overnight
Description: (§1) FIC was calculated based on the toxicity of each molecule on E. coli as well as their combined toxicity on E. coli. The equation for calculation is as follows:
(§2) FIC═[COE]/MICCOE+[Antibiotic]/MICantibiotic
(§3) An FIC less than ≤0.5 indicates synergy, FIC in the range of >0.5 and ≤1.0 indicates additive activity, FIC in the range of >1 and […] indicates indifference, and a FIC >4 indicates antagonism.
(§4) Minimal inhibition concentration (MIC) were used to determine the toxicity of individual molecules as well as them in combination on several bacterial strains. The individual MIC were determined by the minimal concentration of molecules required to inhibit the growth of the bacterial strain in culture medium (such as Lysogeny broth (LB) and Muller Hinton Broth (MHB)) at 37° C. overnight. The combined MICs were measured by using check point method, where the bacterial strain was cultured in a 96-well plate assay with a series concentrations of COE along the rows and a series concentrations of antibiotic molecules along the columns in culture medium at 37° C. overnight. The preparation of the bacterial strain for the assay was done as known in the art. […] Further information regarding the protocol can be found in Wiegand et al., Natl. Protoc., (2008) 3(2):163-75, Orhan et al., J. of Clin. Microbiol. (2005) 43(1):140-143 and Yan et al., Chem. Sci., (2016) 7(9):5714-5722.

[2] = tested on: Colistin resistant Pseudomonas aeruginosa; assay: as above; set-up: MICantibiotic / MICCOE: unit not given beside the values
Description: as §1, §2, §3, §4

E. Coli K-12 = assay: as above; set-up: MICCOE: unit not given beside the values; settings: for MICantibiotic: antibiotic alone, unit assumed; for FIC: smallest FIC
Description: as §1, §2, §3, §4

[3] = tested on: Colistin resistant Acinetobactor baumanni; assay: as above
Description: as §1, §2, §3, §4

Acinetobactor baumanni = assay: as above
Description: as §1, §2, §3, §4

[4] = tested on: HepG2 (ATCC HB-8065) cells; assay: Cellular cytotoxicity, MTT viability assay; settings: 24 h incubation, at 128 μg/mL
Description: Cellular cytotoxicity was assessed using an MTT viability assay. HepG2 (ATCC HB-8065) cells were seeded at 1×10^4 cells/well in 96 well plates over night at 37° C. in DMEM supplemented with 10% FBS before use. COEs were serially diluted with 2-fold dilution in culture media to afford a concentration ranging from 2 to 128 μg/mL. After 24 h incubation, 10 μL of a 5 mg/mL solution of MTT was added to each well. After incubation for 2-4 h, upon discard of previous media, 100 μL of DMSO as solubilizing solution was added to each well, and absorbance at 570 nm were measured on a plate reader. Percent viability was determined by dividing background-corrected absorbance measurements by background corrected measurements for untreated cells. Formula O, Formula TT and Formula PP were measured to be around 94%, 70% and 103% of cell viability at 128 μg/mL, respectively.

[5] = COE in combination with Colistin, smallest FIC

Molecule: colistin [reference compound]
MICantibiotic [1]: 1 | MICantibiotic ([2]; antibiotic alone): 16 | MICantibiotic (E. Coli K-12; E. Coli K-12): 1 µg/mL | MICantibiotic ([3]; antibiotic alone): 512 | MICantibiotic (Acinetobactor baumanni; antibiotic alone): 256

MICantibiotic (E. Coli K-12; E. Coli K-12): 32 µg/mL
Molecule: CO[C@H]1/C=C/O[C@@]2(C)Oc3c(C)c(O)c4c(O)c(c(/C=N/N5CCN(C)CC5)c(O)c4c3C2=O)NC(=O)/C(C)=C\C=C\[C@H](C)[C@H](O)[C@@H](C)[C@@H](O)[C@@H](C)[C@H](OC(C)=O)[C@@H]1C [Rifampin, rifampin]

Molecule: penicillin
MICantibiotic (E. Coli K-12; E. Coli K-12): 64 µg/mL

MICCOE ([2]; COE alone): 256 | MICCOE (E. Coli K-12; COE alone, E. Coli K-12): 1024 | MICCOE ([3]; COE alone): 256 | MICCOE (Acinetobactor baumanni; COE alone): 256
Molecule: C[N+](C)(C)CCCCCCOc1cc(/C=C/c2ccc(/C=C/c3ccc(/C=C/c4cc(OCCCCCC[N+](C)(C)C)cc(OCCCCCC[N+](C)(C)C)c4)cc3)cc2)cc(OCCCCCC[N+](C)(C)C)c1 [Formula TT]
cell viability [4]: ~70% | FIC [2, 5]: 0.14 | antimicrobial effect of combination (in words) ([2]; with colistin): significant synergistic antimicrobial effect | FIC (E. Coli K-12; COE in combination with Chloramphenicol, E. Coli K-12): 1.0 | FIC (E. Coli K-12; COE in combination with Penicillin, E. Coli K-12): 0.53 | FIC (E. Coli K-12; COE in combination with Rifampin, E. Coli K-12): 0.28 | antimicrobial effect of combination (in words) (E. Coli K-12; with rifampin, E. coli K-12): significant synergistic antimicrobial effect | FIC [3, 5]: 0.25 | antimicrobial effect of combination (in words) ([3]; with colistin): significant synergistic antimicrobial effect | FIC (Acinetobactor baumanni; [5]): 0.51

MICantibiotic (E. Coli K-12; E. Coli K-12): 0.125 µg/mL
Molecule: O=C(O)c1cn(C2CC2)c2cc(N3CCNCC3)c(F)cc2c1=O [Ciprofloxacin, ciprofloxacin]

Molecule: CC1(C)S[C@@H]2[C@H](NC(=O)[C@H](N)c3ccccc3)C(=O)N2[C@H]1C(=O)O [Ampicilin, ampicillin]
MICantibiotic (E. Coli K-12; E. Coli K-12): 4 µg/mL

MICantibiotic (E. Coli K-12; E. Coli K-12): 16 µg/mL
Molecule: O=C(N[C@H](CO)[C@H](O)c1ccc([N+](=O)[O-])cc1)C(Cl)Cl [Chloramphenicol, chloramphenicol]

MICantibiotic (E. Coli K-12; E. Coli K-12): 512 µg/mL
Molecule: Cc1cc(NS(=O)(=O)c2ccc(N)cc2)no1 [Sulfamethoxazole, sulfamethoxazole]
